In patent publication US6800651B2 (Eli Lilly and Company, priority 2000, dated 2004):
Read-outs that look alike come from different tables or passages of the source. Blank lines part the entries; values can stand above or below the compound they belong to.

Legend:
mGlu2 receptor = mGlu2 receptor (Homo sapiens, UniProt Q14416); assay: Potentiation of glutamate-induced increase in intracellular calcium with a mGluR2 expressing cell line (FLIPR); type: cell-based; design: expressed in transfected cells; host or cells: RGT cells (co-transfected with GLAST), stably transfected with Galpha15; conditions: for Emax / Emax at 1 µM / Emax at 3 µM: read-out: % Maximal Response (mean ± SD, n = 2); for Emax at 1 µM: 1 μM compound, no agonist, glutamate series 30 μM to 10 nM; for Emax at 3 µM: 3 μM compound, Buffer (no agonist)
Method: Potentiation of Glutamate-Induced Increase in Intracellular Calcium with a mGluR2 Expressing Cell Line.
Cell lines expressing human mGlu2 receptors were derived as previously described (Desai, Burnett, Mayne, Schoepp, Mol. Pharmacol. 48, 648-657, 1995) and cultured in DMEM with 5% dialyzed fetal bovine serum, 1 mM glutamine, 1 mM sodium pyruvate, 50 μg/ml Geneticin G418, and 0.2 mg/ml hygromycin B. Confluent cultures were passaged weekly. […] The RGT cell line expressing the mGluR2 receptors was stably transfected with the promiscuous G-protein, Galpha15 to change the signaling pathway to the mGlu2 receptor to one that could be easily measured through release of intracellular calcium. Thus, intracellular calcium levels were monitored before and after the addition of drugs on a Fluorometric Imaging Plate Reader (i.e. FLIPR, Molecular Devices). The following buffer was used throughout as an assay buffer: 10 mM KCl, 138 mM NaCl, 5 mM Ca Cl2, 1 mM MgCl2, 4 mM NaH2PO4, 10 mM Glucose, 10 mM HEPES, pH 7.4. Cells that had been plated 48 h prior at a density of 30-40,000 cells per well in a 96-well plate were loaded with a calcium-sensitive dye for 90 min at 25° C. Fluo-3 (2 mM in DMSO, Molecular Probes) were mixed with a equal volume of 10% pluronic acid in DMSO, and diluted to 8 μM into the buffer described above containing 10% fetal bovine serum to make the loading buffer. Following loading of the cells, the loading buffer was removed and replaced with assay buffer prior to drug addition and monitoring on the FLIPR.

mice = assay: Electroshock-induced seizures (tonic extensor seizures); type: in vivo, mouse; conditions: electroshock 30 minutes later, percentage of mice protected from seizures
Method: Application of electrical stimulation by corneal electrodes to mice can induce tonic hindlimb-extensor seizures. Blockade of tonic extensor seizures induced by electroshock is considered predictive for drugs which block seizure propagation and may be effective in preventing various seizures in humans, including epileptic seizures.
Vehicle or a dose of a test drug are administered to groups of 5 to 10 mice each. Thirty minutes later, electroshock (10 mA, 0.2 sec duration) is administered by transcorneal electrodes. […] The data are reported as the percentage of mice which are protected from seizures.

[1] = 10 nM Glutamate + 1 μM compound
[2] = 30 nM Glutamate + 1 μM compound
[3] = 100 nM Glutamate + 1 μM compound
[4] = 300 nM Glutamate + 1 μM compound
[5] = 10 μM Glutamate + 1 μM compound
[6] = 30 μM Glutamate + 1 μM compound

Chain of mGlu2 receptor (Q14416 19-872): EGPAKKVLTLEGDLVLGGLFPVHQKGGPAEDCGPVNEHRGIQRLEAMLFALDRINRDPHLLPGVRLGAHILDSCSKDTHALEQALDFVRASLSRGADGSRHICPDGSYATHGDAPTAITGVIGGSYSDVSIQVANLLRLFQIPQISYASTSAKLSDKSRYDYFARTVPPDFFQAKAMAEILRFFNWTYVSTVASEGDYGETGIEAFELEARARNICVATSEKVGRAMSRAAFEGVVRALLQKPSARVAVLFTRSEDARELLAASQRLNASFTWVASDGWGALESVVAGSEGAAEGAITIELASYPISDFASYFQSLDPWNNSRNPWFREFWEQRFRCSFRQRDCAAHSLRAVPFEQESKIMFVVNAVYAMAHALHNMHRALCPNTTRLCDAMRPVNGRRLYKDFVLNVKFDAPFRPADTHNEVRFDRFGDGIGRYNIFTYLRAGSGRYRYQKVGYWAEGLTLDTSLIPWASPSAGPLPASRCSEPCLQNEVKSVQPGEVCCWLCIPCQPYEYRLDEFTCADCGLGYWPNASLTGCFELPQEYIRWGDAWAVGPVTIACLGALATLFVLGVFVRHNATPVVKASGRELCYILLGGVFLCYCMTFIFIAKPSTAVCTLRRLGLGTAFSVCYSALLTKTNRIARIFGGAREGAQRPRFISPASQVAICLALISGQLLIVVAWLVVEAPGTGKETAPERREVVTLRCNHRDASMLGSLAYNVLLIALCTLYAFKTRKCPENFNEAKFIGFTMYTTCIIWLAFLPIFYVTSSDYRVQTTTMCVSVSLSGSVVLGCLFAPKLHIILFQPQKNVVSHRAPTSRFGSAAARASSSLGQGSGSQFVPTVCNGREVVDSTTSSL

Structure (SMILES): COc1ccccc1Oc1cccc(N(Cc2cccnc2)S(=O)(=O)CC(F)(F)F)c1 [Example 1, N-(3-(2-Methoxyphenoxy)phenyl)-N-(2,2,2-trifluoroethylsulfonyl)pyrid-3-ylmethylamine]
Emax (mGlu2 receptor; [1]): -0.3 ± 0.2%
Emax (mGlu2 receptor; [2]): 2.2 ± 1.3%
Emax (mGlu2 receptor; [3]): 1.5 ± 1.2%
Emax (mGlu2 receptor; [4]): 42.5 ± 4.3%
Emax (mGlu2 receptor; 1 μM Glutamate + 1 μM compound): 79.2 ± 14.6%
Emax at 1 µM (mGlu2 receptor): 0.1 ± 0.1%
Emax (mGlu2 receptor; 3 μM Glutamate + 1 μM compound): 112 ± 10.3%
Emax (mGlu2 receptor; [5]): 108 ± 10.7%
% Maximal Glutamate Response (as defined by 30 μM Glutamate) mean ± SD (mGlu2 receptor; 20 μM compound + 0.5 μM L-glutamate): 85.5 ± 5.8%
% Maximal Glutamate Response (as defined by 30 μM Glutamate) mean ± SD (mGlu2 receptor; 20 μM compound alone): 2.3 ± 0.8%
Emax (mGlu2 receptor; [6]): 117 ± 4.3%

Structure (SMILES): O=S(=O)(CC(F)(F)F)N(Cc1cccnc1)c1ccc(Oc2ccccc2)cc1 [Example 22, N-(4-(Phenoxy)phenyl)-N-(2,2,2-trifluoroethylsulfonyl)pyrid-3-ylmethylamine]
Emax (mGlu2 receptor; 1 nM APDC + 3 μM compound): 0.1 ± 0.7%
Emax (mGlu2 receptor; 1 nM DCG IV + 3 μM compound): -0.1 ± 0.6%
Emax (mGlu2 receptor; 30 nM APDC + 3 μM compound): 0.5 ± 1.5%
Emax (mGlu2 receptor; 30 nM DCG IV + 3 μM compound): 11.1 ± 6.1%
Emax (mGlu2 receptor; 100 nM APDC + 3 μM compound): 0.2 ± 0.6%
Emax (mGlu2 receptor; 100 nM DCG IV + 3 μM compound): 83.3 ± 10.5%
Emax (mGlu2 receptor; 300 nM APDC + 3 μM compound): 28.4 ± 1.7%
Emax (mGlu2 receptor; 300 nM DCG IV + 3 μM compound): 133 ± 5.5%
Emax (mGlu2 receptor; 1 μM APDC + 3 μM compound): 92 ± 3.4%
Emax (mGlu2 receptor; 1 μM DCG IV + 3 μM compound): 141 ± 5.9%
Emax (mGlu2 receptor; 3 μM APDC + 3 μM compound): 114 ± 0.8%
Emax (mGlu2 receptor; 3 μM DCG IV + 3 μM compound): 153 ± 2.8%
Emax at 3 µM (mGlu2 receptor; APDC series): 4.7 ± 0.4%
Emax at 3 µM (mGlu2 receptor; DCG IV series): 3.7 ± 1.4%
Emax (mGlu2 receptor; 10 μM APDC + 3 μM compound): 119 ± 4%
Emax (mGlu2 receptor; 10 μM DCG IV + 3 μM compound): 148 ± 1.5%
Emax (mGlu2 receptor; 30 μM APDC + 3 μM compound): 120 ± 10%
Emax (mGlu2 receptor; 30 μM DCG IV + 3 μM compound): 138 ± 7.1%

Structure (SMILES): COc1ccccc1Oc1ccc(N(Cc2cccnc2)S(=O)(=O)CC(F)(F)F)cc1Cl [Example 9, N-(4-(2-Methoxyphenoxy)-3-chlorophenyl)-N-(2,2,2-trifluoroethylsulfonyl)pyrid-3-ylmethylamine]
Emax (mGlu2 receptor; [1]): 2.4 ± 0.3%
Emax (mGlu2 receptor; [2]): 4.7 ± 0.4%
Emax (mGlu2 receptor; [3]): 20.5 ± 4.3%
Emax (mGlu2 receptor; [4]): 60 ± 10.6%
Emax (mGlu2 receptor; 1 μM Glutamate + 1 μM compound): 93.1 ± 2.5%
Emax at 1 µM (mGlu2 receptor): 4.2 ± 2.7%
Emax (mGlu2 receptor; 3 μM Glutamate + 1 μM compound): 102 ± 8.1%
Emax (mGlu2 receptor; [5]): 103 ± 6.2%
Emax (mGlu2 receptor; [6]): 108 ± 12.3%

Structure (SMILES): O=S(=O)(CC(F)(F)F)N(Cc1cccnc1)c1cccc(Oc2ccccc2O)c1 [Example 23, N-(3-(2-Hydroxyphenoxy)phenyl)-N-(2,2,2-trifluoroethylsulfonyl)pyrid-3-ylmethylamine]
melting point: 57.5 to 60 °C

Structure (SMILES): CCS(=O)(=O)N(Cc1cccnc1)c1cccc(-c2ccc(C#N)cc2)c1 [Example 590]
Percent Protection (mice; 30 mg/kg ip): 60%
Percent Protection (mice; 100 mg/kg ip): 100%

Other lines, results leading:

melting point: 110 to 112 °C
Structure (SMILES): CCS(=O)(=O)N(Cc1cccnc1F)c1ccc(Oc2ccc(F)cc2F)cc1 [Example 615, N-(4-(2,4-Difluorophenoxy)phenyl)-N-(ethanesulfonyl)-2-fluoropyrid-3-ylmethylamine]

% Maximal Glutamate Response (as defined by 30 μM Glutamate) mean ± SD (mGlu2 receptor; 0.5 μM L-glutamate alone): 1.9 ± 1.0%
Structure (SMILES): N[C@@H](CCC(=O)O)C(=O)O [Glutamate, L-glutamate, reference compound]
